The test system of one data set is Serratia marcescens. Nature of the data set: Antibiotic activity (MIC), Gradient Plate in vitro method, Serratia marcescens. In kind it is cell-based. The settings on record: read-out: Minimum Inhibitory Concentration. The text has this:
(§1) The antibiotic activity of the cephalosporin compounds of the present invention is illustrated by the data presented in Table I for representative compounds. The values in the table are the minimum inhibitory concentrations (MIC) for the test compounds against the indicated microorganisms. The MIC values were obtained in the Gradient Plate in vitro method for determining antibiotic activity.

The test system of data set [1] is X466 (methicillin resistant Staphylococcus). Nature of the data set: Antibiotic activity (MIC), Gradient Plate in vitro method, X466. It is filed as cell-based. The settings on record: read-out: Minimum Inhibitory Concentration. The text has this:
The antibiotic activity of the cephalosporin compounds of the present invention is illustrated by the data presented in Table I for representative compounds. The values in the table are the minimum inhibitory concentrations (MIC) for the test compounds against the indicated microorganisms. The MIC values were obtained in the Gradient Plate in vitro method for determining antibiotic activity. […]

The next data set deals with Shigella sp. Nature of the data set: Antibiotic activity (MIC), Gradient Plate in vitro method, Shigella sp. In kind it is cell-based. The settings on record: read-out: Minimum Inhibitory Concentration.
Source text: as §1

Data set [2] in a line: Water solubility (inferred from low yield). Particulars: inferred from low yield of aqueous isolation. In kind it is physicochemical.
For data set [3], the system named is V32 (penicillin resistant Staphylococcus). The data set is described as follows: Antibiotic activity (MIC), Gradient Plate in vitro method, V32. The settings on record: read-out: Minimum Inhibitory Concentration. It is filed as cell-based.
Source text: as §1
(§2) ^1 Test organisms V41, V32, and V84 are penicillin resistant

In the next data set the test system is Escherichia coli. Nature of the data set: Antibiotic activity (MIC), Gradient Plate in vitro method, Escherichia coli. In kind it is cell-based. The settings on record: read-out: Minimum Inhibitory Concentration. The text has this:
(§3) The values in the table are the minimum inhibitory concentrations (MIC) for the test compounds against the indicated microorganisms. The MIC values were obtained in the Gradient Plate in vitro method for determining antibiotic activity.

Data set [4] relates to V41 (penicillin resistant Staphylococcus). The data set is described as follows: Antibiotic activity (MIC), Gradient Plate in vitro method, V41. It is filed as cell-based. Particulars: read-out: Minimum Inhibitory Concentration.
Source text: as §1, §2

A further data set deals with Pseudomonas Aeruginosa. Nature of the data set: Antibiotic activity (MIC), Gradient Plate in vitro method, Pseudomonas Aeruginosa. It is filed as cell-based. The settings on record: read-out: Minimum Inhibitory Concentration.
Source text: as §3

Data set [5] deals with V84 (penicillin resistant Staphylococcus). The data set is described as follows: Antibiotic activity (MIC), Gradient Plate in vitro method, V84. It is filed as cell-based. The settings on record: read-out: Minimum Inhibitory Concentration.
Source text: as §1, §2

A further data set relates to Salmonella heidelberg. The data set is described as follows: Antibiotic activity (MIC), Gradient Plate in vitro method, Salmonella heidelberg. It is filed as cell-based. Particulars: Salmonella enterica, read-out: Minimum Inhibitory Concentration.
Source text: as §3

A further data set deals with Klebsiella pneumoniae. Nature of the data set: Antibiotic activity (MIC), Gradient Plate in vitro method, Klebsiella pneumoniae. It is filed as cell-based. The settings on record: read-out: Minimum Inhibitory Concentration.
Source text: as §3

A further data set has as its system Aerobacter Aerogenes. The data set is described as follows: Antibiotic activity (MIC), Gradient Plate in vitro method, Aerobacter Aerogenes. It is filed as cell-based. The settings on record: Klebsiella aerogenes, read-out: Minimum Inhibitory Concentration.
Source text: as §3

The next data set is described as follows: Titration (pKa). In kind it is physicochemical. The settings on record: 66% dmf-34% h2o, titration (66% DMF-34% H2O).

SMILES strings stand for the structures. In brackets after ≈: the same amount, converted by molar mass. Where two headings read alike, the source gives them in different places.

In the case of `Cc1nnc(SCC2=C(C(=O)O)N3C(=O)C(NC(=O)[C@H](NC(=O)c4ccc(O)cc4)c4ccc(O)cc4)C3SC2)s1` (stereo partly drawn) [Example 12, 7-[D-[2-(4-Hydroxyphenyl)-2-[(4-hydroxybenzoyl)amino]acetyl]-amino]-3-[[(5-methyl-1,3,4-thiadiazol-2-yl)thio]methyl]-3-cephem-4-carboxylic acid], the MIC in the data set with Serratia marcescens was > 200 µg/mL; in [1], 84 µg/mL (≈ 137 µM); in the data set with Shigella sp., 13.9 µg/mL (≈ 22.6 µM); in [3] (Staphylococcus), 1 µg/mL (≈ 1.63 µM); in the data set with Escherichia coli it was 50 µg/mL (≈ 81.5 µM); in data set [4] (Staphylococcus), 1 µg/mL (≈ 1.63 µM). The MIC in the data set with Pseudomonas Aeruginosa is > 200 µg/mL; in data set [5] (Staphylococcus), 1 µg/mL (≈ 1.63 µM); with Salmonella heidelberg, 33 µg/mL (≈ 53.8 µM); in the data set on Klebsiella pneumoniae, 29.5 µg/mL (≈ 48.1 µM); with Aerobacter Aerogenes, 40 µg/mL (≈ 65.2 µM). Besides, in data set [2], the water solubility entry is listed as “quite water soluble”.
Consider `NC(=O)OCC1=C(C(=O)O)N2C(=O)C(NC(=O)C(NC(=O)c3cccc(O)c3O)c3ccccc3)C2SC1` [Example 20, 7-[D-[2-Phenyl-2-[(2,3-dihydroxybenzoyl)amino]acetyl]-amino]-3-carbamoyloxymethyl-3-cephem-4-carboxylic acid], for which the MIC was > 200 µg/mL with Serratia marcescens; > 200 µg/mL in data set [1]; 58 µg/mL (≈ 107 µM) in the data set with Shigella sp.; 7.4 µg/mL (≈ 13.6 µM) in data set [3] (Gradient Plate in vitro, V32, penicillin resistant Staphylococcus); 74 µg/mL (≈ 136 µM) with Escherichia coli; 7.9 µg/mL (≈ 14.6 µM) in [4] (Gradient Plate in vitro, V41, penicillin resistant Staphylococcus). Besides, the MIC was found to be 140 µg/mL (≈ 258 µM) in the data set with Pseudomonas Aeruginosa; 6.1 µg/mL (≈ 11.2 µM) in [5] (Gradient Plate in vitro, V84, penicillin resistant Staphylococcus); 1 µg/mL (≈ 1.84 µM) in the data set with Salmonella heidelberg; 6.5 µg/mL (≈ 12 µM) in the data set with Klebsiella pneumoniae; 76 µg/mL (≈ 140 µM) in the data set on Aerobacter Aerogenes. Further, the pKa (commonly the pH at which an ionisable group is half protonated) in “Titration (pKa)” (first pKa, read-out: pKa (first value)) came out at 5.15; in “Titration (pKa)” (second pKa, read-out: pKa (second value)) it was 8.7.

The record behind these values is patent US4319028A, “7-(2-(Substituted benzoyl)amino)acetamido)cephalosporins” (Eli Lilly and Company, priority 1976, dated 1982).
